Results taken from BindingDB's records for doi:10.1016/j.bmcl.2004.12.045 (Nimbus Therapeutics, 2022).

Legend:
Cytochrome P450 2D6 = Cytochrome P450 2D6 (Homo sapiens, UniProt P10635); assay: Inhibition of CYP2D6 (unknown origin)
Cytochrome P450 3A5 = Cytochrome P450 3A5 (Homo sapiens, UniProt P20815); assay: Inhibition of CYP3A5 (unknown origin)
Cytochrome P450 1A2 = molecular target: T1, Cytochrome P450 1A2 (Homo sapiens, UniProt P05177); assay: Inhibition of CYP1A2 (unknown origin)
T1 sequence (P05177 whole entry): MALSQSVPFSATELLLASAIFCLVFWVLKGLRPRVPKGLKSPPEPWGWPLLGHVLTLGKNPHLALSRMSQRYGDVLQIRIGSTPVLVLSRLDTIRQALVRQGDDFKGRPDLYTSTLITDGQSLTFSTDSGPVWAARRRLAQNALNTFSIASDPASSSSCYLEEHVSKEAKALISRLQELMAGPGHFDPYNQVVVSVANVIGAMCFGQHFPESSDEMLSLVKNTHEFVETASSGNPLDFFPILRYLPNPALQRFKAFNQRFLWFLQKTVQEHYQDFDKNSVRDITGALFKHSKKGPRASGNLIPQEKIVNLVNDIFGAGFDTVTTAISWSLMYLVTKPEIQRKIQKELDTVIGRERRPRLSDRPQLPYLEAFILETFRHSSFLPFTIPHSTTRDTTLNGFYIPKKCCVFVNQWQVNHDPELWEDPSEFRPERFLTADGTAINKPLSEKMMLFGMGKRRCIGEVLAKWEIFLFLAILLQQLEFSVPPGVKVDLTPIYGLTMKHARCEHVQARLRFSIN

Cytochrome P450 2B6 = molecular target: T2, Cytochrome P450 2B6 (Homo sapiens, UniProt P20813); assay: Inhibition of CYP2B6 (unknown origin)
T2 sequence (P20813 whole entry): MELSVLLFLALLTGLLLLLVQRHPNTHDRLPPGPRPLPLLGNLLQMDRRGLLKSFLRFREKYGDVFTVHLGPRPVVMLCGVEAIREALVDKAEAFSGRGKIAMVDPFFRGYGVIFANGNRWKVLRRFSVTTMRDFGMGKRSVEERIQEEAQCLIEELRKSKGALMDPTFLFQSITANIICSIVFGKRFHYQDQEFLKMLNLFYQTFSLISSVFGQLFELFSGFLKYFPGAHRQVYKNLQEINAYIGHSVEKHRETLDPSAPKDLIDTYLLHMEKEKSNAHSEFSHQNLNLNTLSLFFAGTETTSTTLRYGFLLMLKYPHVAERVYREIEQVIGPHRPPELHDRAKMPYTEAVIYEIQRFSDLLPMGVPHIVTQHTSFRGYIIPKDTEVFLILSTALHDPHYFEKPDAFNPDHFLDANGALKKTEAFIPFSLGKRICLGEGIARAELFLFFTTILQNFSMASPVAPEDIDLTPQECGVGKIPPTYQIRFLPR

Cytochrome P450 2C9 = Cytochrome P450 2C9 (Homo sapiens, UniProt P11712); assay: Inhibition of CYP2C9 (unknown origin)
Chain of Cytochrome P450 2C9 (P11712 whole entry): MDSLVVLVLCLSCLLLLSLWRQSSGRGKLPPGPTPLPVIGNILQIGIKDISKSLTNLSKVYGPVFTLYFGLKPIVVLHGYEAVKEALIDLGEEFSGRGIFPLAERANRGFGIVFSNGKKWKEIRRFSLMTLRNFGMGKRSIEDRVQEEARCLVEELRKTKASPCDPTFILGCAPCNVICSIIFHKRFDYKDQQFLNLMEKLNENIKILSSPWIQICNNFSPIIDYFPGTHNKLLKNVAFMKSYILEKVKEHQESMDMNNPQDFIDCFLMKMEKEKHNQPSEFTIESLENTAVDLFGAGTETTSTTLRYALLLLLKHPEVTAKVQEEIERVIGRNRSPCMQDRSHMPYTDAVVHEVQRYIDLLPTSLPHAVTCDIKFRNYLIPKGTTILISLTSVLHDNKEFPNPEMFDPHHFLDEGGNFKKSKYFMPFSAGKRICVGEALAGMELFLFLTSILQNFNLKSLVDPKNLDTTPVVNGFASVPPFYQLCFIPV

Cytochrome P450 3A4 = Cytochrome P450 3A4 (Homo sapiens, UniProt P08684); assay: Inhibition of CYP3A4 (unknown origin)
Chain of Cytochrome P450 3A4 (P08684 whole entry): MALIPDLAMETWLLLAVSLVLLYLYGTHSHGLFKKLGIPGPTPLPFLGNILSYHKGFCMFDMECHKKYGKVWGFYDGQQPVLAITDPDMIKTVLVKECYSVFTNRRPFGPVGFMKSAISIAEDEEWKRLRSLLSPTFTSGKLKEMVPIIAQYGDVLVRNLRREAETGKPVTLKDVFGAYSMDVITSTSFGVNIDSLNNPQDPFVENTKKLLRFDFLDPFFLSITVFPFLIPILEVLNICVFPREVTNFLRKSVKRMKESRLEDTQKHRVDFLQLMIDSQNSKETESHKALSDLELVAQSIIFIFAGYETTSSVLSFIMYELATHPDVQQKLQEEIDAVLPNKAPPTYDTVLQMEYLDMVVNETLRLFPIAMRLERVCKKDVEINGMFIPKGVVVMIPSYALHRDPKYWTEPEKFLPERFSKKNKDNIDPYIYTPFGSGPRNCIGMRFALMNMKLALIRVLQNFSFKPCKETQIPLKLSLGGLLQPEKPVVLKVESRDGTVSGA

Cytochrome P450 2A6 = molecular target: T3, Cytochrome P450 2A6 (Homo sapiens, UniProt P11509); assay: Inhibition of CYP2A6 (unknown origin)
T3 sequence (P11509 whole entry): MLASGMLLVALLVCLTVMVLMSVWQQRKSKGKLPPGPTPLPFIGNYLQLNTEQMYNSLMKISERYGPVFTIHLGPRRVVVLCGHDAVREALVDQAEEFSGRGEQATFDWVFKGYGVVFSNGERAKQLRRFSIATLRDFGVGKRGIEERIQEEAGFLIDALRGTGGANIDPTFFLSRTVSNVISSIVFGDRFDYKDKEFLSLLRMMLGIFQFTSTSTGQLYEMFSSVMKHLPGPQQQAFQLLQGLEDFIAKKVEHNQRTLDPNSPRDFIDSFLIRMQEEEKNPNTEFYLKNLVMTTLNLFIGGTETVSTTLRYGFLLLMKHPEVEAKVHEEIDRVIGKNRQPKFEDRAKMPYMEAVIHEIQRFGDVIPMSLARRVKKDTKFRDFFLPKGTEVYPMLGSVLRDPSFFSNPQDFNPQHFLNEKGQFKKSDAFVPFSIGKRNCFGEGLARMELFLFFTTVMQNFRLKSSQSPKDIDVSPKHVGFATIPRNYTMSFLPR

Cytochrome P450 2C8 = molecular target: T4, Cytochrome P450 2C8 (Homo sapiens, UniProt P10632); assay: Inhibition of CYP2C8 (unknown origin)
T4 sequence (P10632 whole entry): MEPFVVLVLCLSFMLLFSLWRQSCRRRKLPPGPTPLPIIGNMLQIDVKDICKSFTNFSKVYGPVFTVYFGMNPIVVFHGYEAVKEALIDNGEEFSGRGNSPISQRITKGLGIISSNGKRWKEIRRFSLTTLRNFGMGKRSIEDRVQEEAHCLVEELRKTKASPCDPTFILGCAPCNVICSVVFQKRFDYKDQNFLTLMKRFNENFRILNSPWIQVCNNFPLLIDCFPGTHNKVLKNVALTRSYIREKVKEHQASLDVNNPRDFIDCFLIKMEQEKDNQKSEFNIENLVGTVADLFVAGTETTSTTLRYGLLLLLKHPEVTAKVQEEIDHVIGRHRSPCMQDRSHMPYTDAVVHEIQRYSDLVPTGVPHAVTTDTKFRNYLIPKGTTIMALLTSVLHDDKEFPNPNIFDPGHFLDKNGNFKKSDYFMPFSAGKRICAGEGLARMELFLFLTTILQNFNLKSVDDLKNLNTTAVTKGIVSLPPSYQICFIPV

Cytochrome P450 2E1 = Cytochrome P450 2E1 (Homo sapiens, UniProt P05181); assay: Inhibition of CYP2E1 (unknown origin)
Chain of Cytochrome P450 2E1 (P05181 whole entry): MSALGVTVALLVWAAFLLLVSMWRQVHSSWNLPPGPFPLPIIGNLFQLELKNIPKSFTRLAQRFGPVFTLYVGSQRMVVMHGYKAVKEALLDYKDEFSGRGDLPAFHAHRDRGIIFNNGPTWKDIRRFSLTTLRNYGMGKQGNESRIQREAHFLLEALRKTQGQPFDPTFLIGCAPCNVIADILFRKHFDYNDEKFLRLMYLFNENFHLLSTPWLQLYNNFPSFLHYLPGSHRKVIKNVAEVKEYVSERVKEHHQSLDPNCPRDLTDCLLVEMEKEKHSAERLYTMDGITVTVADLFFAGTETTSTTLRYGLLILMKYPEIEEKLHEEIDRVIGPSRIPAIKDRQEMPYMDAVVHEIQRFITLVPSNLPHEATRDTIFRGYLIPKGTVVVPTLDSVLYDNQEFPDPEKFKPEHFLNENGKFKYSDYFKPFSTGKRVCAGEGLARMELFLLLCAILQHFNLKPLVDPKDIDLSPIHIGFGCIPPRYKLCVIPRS

[1] = molecular target: Potassium voltage-gated channel subfamily H member 2 (Homo sapiens, UniProt Q12809); assay: Inhibition of hERG measured by patchclamp assay
Chain of Potassium voltage-gated channel subfamily H member 2 (Q12809 whole entry): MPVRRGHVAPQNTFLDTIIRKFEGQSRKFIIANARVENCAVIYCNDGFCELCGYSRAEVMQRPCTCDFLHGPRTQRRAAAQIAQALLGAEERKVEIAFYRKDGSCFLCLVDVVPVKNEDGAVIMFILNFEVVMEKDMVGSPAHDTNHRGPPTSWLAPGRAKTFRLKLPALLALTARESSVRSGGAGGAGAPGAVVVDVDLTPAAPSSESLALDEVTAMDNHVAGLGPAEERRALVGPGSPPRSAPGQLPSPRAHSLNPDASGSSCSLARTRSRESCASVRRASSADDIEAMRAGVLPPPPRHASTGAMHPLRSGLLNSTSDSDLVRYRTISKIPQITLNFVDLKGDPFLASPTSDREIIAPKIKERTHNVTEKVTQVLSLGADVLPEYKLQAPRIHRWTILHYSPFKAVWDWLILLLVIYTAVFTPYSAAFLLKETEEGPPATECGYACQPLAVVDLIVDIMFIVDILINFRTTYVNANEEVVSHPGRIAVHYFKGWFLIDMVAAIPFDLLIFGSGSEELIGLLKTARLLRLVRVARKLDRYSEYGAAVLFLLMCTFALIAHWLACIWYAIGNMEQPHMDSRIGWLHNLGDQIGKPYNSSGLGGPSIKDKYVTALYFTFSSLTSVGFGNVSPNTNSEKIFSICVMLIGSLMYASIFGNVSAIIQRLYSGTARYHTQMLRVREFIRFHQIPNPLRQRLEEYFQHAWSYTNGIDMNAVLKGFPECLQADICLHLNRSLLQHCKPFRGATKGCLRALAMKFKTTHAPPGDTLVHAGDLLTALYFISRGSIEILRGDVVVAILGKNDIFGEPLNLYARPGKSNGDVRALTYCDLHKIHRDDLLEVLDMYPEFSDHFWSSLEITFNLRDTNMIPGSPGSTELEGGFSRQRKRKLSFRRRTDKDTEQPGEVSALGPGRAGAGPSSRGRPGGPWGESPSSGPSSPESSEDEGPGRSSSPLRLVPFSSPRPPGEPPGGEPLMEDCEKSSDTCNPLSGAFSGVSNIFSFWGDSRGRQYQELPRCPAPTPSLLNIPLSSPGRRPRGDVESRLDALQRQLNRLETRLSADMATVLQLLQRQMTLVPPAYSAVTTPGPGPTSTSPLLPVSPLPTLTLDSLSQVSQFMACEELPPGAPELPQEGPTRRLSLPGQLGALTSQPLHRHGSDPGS

Cytochrome P450 2C19 = Cytochrome P450 2C19 (Homo sapiens, UniProt P33261); assay: Inhibition of CYP2C19 (unknown origin)
Chain of Cytochrome P450 2C19 (P33261 whole entry): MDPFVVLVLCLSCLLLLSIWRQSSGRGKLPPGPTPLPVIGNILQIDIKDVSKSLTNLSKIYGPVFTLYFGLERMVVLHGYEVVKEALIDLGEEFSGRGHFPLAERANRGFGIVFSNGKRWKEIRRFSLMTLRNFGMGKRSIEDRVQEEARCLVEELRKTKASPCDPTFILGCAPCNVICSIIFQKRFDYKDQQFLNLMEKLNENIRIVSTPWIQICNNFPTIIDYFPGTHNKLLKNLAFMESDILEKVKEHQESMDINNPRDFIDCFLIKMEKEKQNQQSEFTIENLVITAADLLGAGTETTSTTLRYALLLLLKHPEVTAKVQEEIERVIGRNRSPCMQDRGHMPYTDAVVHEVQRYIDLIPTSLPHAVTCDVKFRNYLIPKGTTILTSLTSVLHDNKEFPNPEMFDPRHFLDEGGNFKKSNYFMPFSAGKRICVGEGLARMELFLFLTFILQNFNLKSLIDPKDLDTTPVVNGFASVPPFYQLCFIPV

Chain of Cytochrome P450 2D6 (P10635 whole entry): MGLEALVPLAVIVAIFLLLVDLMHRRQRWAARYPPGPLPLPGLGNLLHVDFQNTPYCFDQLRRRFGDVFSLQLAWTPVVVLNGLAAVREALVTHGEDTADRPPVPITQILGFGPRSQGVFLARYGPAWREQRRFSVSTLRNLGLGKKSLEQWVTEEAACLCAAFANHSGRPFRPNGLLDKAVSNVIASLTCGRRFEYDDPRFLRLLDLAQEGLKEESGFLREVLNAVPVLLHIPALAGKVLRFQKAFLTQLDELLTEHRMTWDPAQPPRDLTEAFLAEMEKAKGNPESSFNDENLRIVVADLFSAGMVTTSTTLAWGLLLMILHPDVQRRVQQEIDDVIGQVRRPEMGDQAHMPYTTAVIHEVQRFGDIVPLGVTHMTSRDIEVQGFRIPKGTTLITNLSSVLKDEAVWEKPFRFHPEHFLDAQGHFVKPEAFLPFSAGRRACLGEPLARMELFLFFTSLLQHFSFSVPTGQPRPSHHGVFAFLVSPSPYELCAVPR
Chain of Cytochrome P450 3A5 (P20815 whole entry): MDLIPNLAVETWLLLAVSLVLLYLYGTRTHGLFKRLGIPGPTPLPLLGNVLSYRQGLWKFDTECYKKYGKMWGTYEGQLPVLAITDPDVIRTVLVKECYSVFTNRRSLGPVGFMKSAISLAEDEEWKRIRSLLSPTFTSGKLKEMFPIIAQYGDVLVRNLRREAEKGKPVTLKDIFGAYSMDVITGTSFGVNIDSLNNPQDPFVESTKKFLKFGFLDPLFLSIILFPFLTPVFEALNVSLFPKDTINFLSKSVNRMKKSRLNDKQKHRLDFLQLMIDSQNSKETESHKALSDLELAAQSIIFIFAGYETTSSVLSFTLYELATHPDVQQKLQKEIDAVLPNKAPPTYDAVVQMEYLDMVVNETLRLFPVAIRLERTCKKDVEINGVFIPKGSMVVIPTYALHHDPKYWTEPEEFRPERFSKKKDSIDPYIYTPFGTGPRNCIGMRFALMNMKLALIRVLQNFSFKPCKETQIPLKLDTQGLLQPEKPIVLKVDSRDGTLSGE

IC50 (Cytochrome P450 2D6): > 30 µM | IC50 (Cytochrome P450 3A5): > 30 µM | IC50 (Cytochrome P450 1A2): > 30 µM | IC50 (Cytochrome P450 2B6): > 30 µM | IC50 (Cytochrome P450 2C9): > 30 µM | IC50 (Cytochrome P450 3A4): > 30 µM | IC50 (Cytochrome P450 2A6): > 30 µM | IC50 (Cytochrome P450 2C8): > 30 µM | IC50 (Cytochrome P450 2E1): > 30 µM | IC50 (Cytochrome P450 2C19): > 30 µM
Structure (SMILES): O=C1NCc2nc(-c3c(F)cccc3F)cc(Nc3ccc(C(=O)N4CCCC4)cc3)c21 [US10336752, Compound 2]
IC50 [1]: > 30 µM
